This is an account of results in ChEMBL document CHEMBL4622896, “Enzymatic biosynthesis and biological evaluation of novel 17-AAG glucoside as potential anti-cancer agents” (Bioorg Med Chem Lett, 2020).

Series [1] can be described thus: Solubility of the compound in water. Type of series: physicochemical.
Series [2] deals with T1, Heat shock protein HSP90 (Homo sapiens, UniProt P07900+P08238). Kind of series: Inhibition of HSP90 in human CNE2Z cells assessed as downregulation of Bcl2 expression at 10 to 40 uM by Western blot analysis. Type of series: cell-based. (In general: A western blot detects proteins with antibodies after separation by electrophoresis.)
Series [3] is described as follows: Toxicity in nude mouse xenografted with human CNE2Z cells assessed as effect on liver at 1 mg/kg, ip administered for 19 days by hematoxylin and eosin staining based assay. It is filed as organism-based. To be noted: in vivo, 456 h. In general terms: Xenograft models place foreign cells or tissue in a host animal.
Series [4] concerns SW480. Briefly: Antiproliferative activity against human SW480 cells assessed as cell growth inhibition by MTT assay. Type of series: functional, cell-based. On the technique in general: Formazan colour is commonly taken as a measure of viable cells.
Series [5] concerns the target T1, Heat shock protein HSP90. Kind of series: Inhibition of HSP90 ATPase activity (unknown origin) malachite-green phosphate assay. It is filed as protein assay.
Series [6] concerns the target T1, Heat shock protein HSP90. Briefly: Inhibition of HSP90 in human CNE2Z cells assessed as downregulation of c-Raf expression at 10 to 40 uM by Western blot analysis. Type of series: cell-based.
In series [7] the test system is SMMC-7721. Briefly: Antiproliferative activity against human SMMC7721 cells assessed as cell growth inhibition by MTT assay. Type of series: functional, cell-based.
The nature of series [8]: Toxicity in nude mouse xenografted with human CNE2Z cells assessed as effect on lung at 1 mg/kg, ip administered for 19 days by hematoxylin and eosin staining based assay. It is filed as organism-based. The note with it: in vivo, 456 h.
Series [9] concerns CNE2Z. Kind of series: Antitumor activity against human CNE2Z cells xenografted in nude mouse assessed as reduction in tumor volume at 1 mg/kg, ip administered for 19 days relative to control. It is filed as functional. The note with it: 456 h.
A short description of series [10]: Toxicity in nude mouse xenografted with human CNE2Z cells assessed as effect on kidney at 1 mg/kg, ip administered for 19 days by hematoxylin and eosin staining based assay. It is filed as organism-based. The note with it: in vivo, 456 h.
The subject of series [11] is HepG2. Kind of series: Antiproliferative activity against human HepG2 cells assessed as cell growth inhibition by MTT assay. Type of series: functional, cell-based.
A short description of series [12]: Toxicity in nude mouse xenografted with human CNE2Z cells assessed as effect on body weight at 1 mg/kg, ip administered for 19 days. It is filed as organism-based. The note with it: in vivo, 456 h.
Series [13] has as its target T1, Heat shock protein HSP90. Kind of series: Inhibition of HSP90 in human CNE2Z cells assessed as downregulation of Her-2 expression at 10 to 40 uM by Western blot analysis. Type of series: cell-based.
The nature of series [14]: Solubility of the compound in water relative to 17-AAG. Type of series: physicochemical. To be noted: buffer.
The subject of series [15] is CNE2Z. Kind of series: Antiproliferative activity against human CNE2Z cells assessed as cell growth inhibition by MTT assay. Type of series: functional, cell-based.
Series [16] deals with MDA-MB-231. Briefly: Antiproliferative activity against human MDA-MB-231 cells assessed as cell growth inhibition by MTT assay. It is filed as functional, cell-based.
In series [17] the target is T1, Heat shock protein HSP90. Kind of series: Inhibition of HSP90 in human CNE2Z cells assessed as downregulation of Akt expression at 10 to 40 uM by Western blot analysis. It is filed as cell-based.
The target in series [18] is T1, Heat shock protein HSP90. Kind of series: Inhibition of HSP90 in human CNE2Z cells assessed as downregulation of HIF-1alpha expression at 10 to 40 uM by Western blot analysis. Type of series: cell-based.
Series [19] in a line: Toxicity in nude mouse xenografted with human CNE2Z cells assessed as effect on body weight at 5 mg/kg, ip administered for 19 days. It is filed as organism-based. The note with it: in vivo, 456 h.

≈ marks a conversion by molar mass, not a printed value. Calls of active or inactive are those of the source. The calls are words filed in the database; no cut-off is given here.

The term solubility denotes how much of the substance goes into solution per volume. A lower solubility goes with little dissolved substance. As a reminder, the IC50 is the concentration that inhibits the measured activity by half. Usually inhibition in vivo stands for the change of the read-out against control, counted positive when it falls. As for `C=CCNC1=C2C[C@@H](C)C[C@H](OC)[C@H](O[C@@H]3O[C@H](CO)[C@@H](O)[C@H](O)[C@H]3O)[C@@H](C)/C=C(\C)[C@H](OC(N)=O)[C@@H](OC)/C=C\C=C(/C)C(=O)NC(=CC1=O)C2=O` (stereo in doubt), the concentration in solution in series [1] (solubility) came to 661 µM (≈ 494 µg/mL). Also, the inhibition result in series [2], in series [6], in [13], in [17] and in [18] was “Active” throughout. The Activity result in [3], in series [8], in [10] and in [12] was “Non-Toxic” throughout. Also, the IC50 in [4] is 6.13 µM; in series [5], > 100 µM; in series [7], 5.26 µM; in series [11] it was 6.28 µM; in series [15] it was 9.2 µM; in series [16], 28.5 µM. The inhibition in vivo at 1 mg/kg in series [9] amounted to 75.5%. Also, in [14], the Ratio was 10.5.
Take `COC1=C2C[C@@H](C)C[C@H](OC)[C@H](O)[C@@H](C)/C=C(\C)[C@H](OC(N)=O)[C@@H](OC)/C=C\C=C(/C)C(=O)NC(=CC1=O)C2=O` [GELDANAMYCIN]: the IC50 stood at 0.51 µM in [4]; 0.11 µM in series [7]; 1.74 µM in series [11]; 0.31 µM in [15]; 0.62 µM in series [16].
For `C=CCNC1=C2C[C@@H](C)C[C@H](OC)[C@H](O)[C@@H](C)/C=C(\C)[C@H](OC(N)=O)[C@@H](OC)/C=C\C=C(/C)C(=O)NC(=CC1=O)C2=O` [TANESPIMYCIN], the concentration in solution in series [1] (solubility) came to 63 µM (≈ 36.9 µg/mL). Further, the IC50 in [4] was 0.28 µM; in series [7], 0.19 µM; in series [11], 0.32 µM; in [15], 8.41 µM; in [16], 1.79 µM. In addition, the Activity entry in series [19] is recorded as “Non-Toxic”.
